How the values were obtained:
[1] = Stability and migration in the delivery system; format: physicochemical
From the text: The menthol in a pack of mentholated cigarettes, for example, is contained by an outer plastic packaging film. Within this packaging film, the menthol migrates and equilibrates. However, once this outer packaging film is removed (upon opening the pack for the first time), the menthol will begin to be lost. This migration and loss of the volatile menthol needs to be factored in when deciding how much menthol to include in each delivery system and where to apply it. It also means that the menthol delivery may vary depending on where the menthol is located when the delivery system is used.
This means that greater significance is attached to the amount of WS-3 incorporated into the delivery system, as well as where and how it is incorporated.
In some embodiments, the cooling agent WS-3 is present in the aerosol-generating material. In some embodiments, the cooling agent WS-3 is applied to the aerosol-generating material. As the delivery system is used, the WS-3 is volatilized and is entrained in the aerosol flow through the delivery system. […] This is despite the high temperatures seen in the rods of aerosol-generating material in combustible aerosol provision system, such as cigarettes. This is also despite the relatively low volatility of the WS-3 compared to some cooling agents used in delivery systems, such as menthol.

[2] = Sniffing Analysis of uncombusted tobacco, Quantitative Descriptive Profiling (ISO 13299)
Method: Further samples were analyzed using “Sniffing Analysis”, an applied sensory method for the assessment of characterizing flavors of standard products, by sniffing the tobacco itself, without combusting it, using a method as provided in the international standard ISO 13299. The data is set out in Tables 4 and 5, showing the results of Quantitative Descriptive Profiling (QDP), providing a score of between 0 and 5 for perception of the different tobacco typical and non-tobacco typical flavor notes
A critical intensity of a Mean >1.0 is highlighted in bold in Tables 4 and 5. On the 0-5 category scale, none of the prototype cigarette of “W53” or “WS23” show any critical intensity above 1.0 for the Non-Tobacco Typical Flavor Notes (see Table 5).

[3] = Smoking sensory evaluation of cigarettes by testers (1 to 10 scale, N=28); format: in vivo; conditions: smoked cigarette
Method: Test cigarettes were produced using the following amounts of WS-3 applied to the aerosol-generating material in the tobacco rod in the form of a solution:
Various cigarettes were prepared and smoked so that the (1) menthol-family flavor intensity; (2) cooling sensation; and (3) tobacco taste intensity could each be evaluated by testers on a 1 to 10 scale (N=28).

[4] = as above; format: in vivo; conditions: 1 mg
[5] = Solubility in solvents; format: physicochemical

CC1CCC(C(C)C)C(O)C1 (stereo not drawn) [Menthol]
Migration within the delivery system or packaging during storage [1]: highly volatile and migrates | Non-Tobacco Typical Flavor Note: Alcoholic ([2]; 4 mg, score 0-5): .1 | Non-Tobacco Typical Flavor Note: Cacao ([2]; 4 mg, score 0-5): .0 | Non-Tobacco Typical Flavor Note: Caramel ([2]; 4 mg, score 0-5): .1 | Non-Tobacco Typical Flavor Note: Citrus ([2]; 4 mg, score 0-5): .0 | Non-Tobacco Typical Flavor Note: Floral ([2]; 4 mg, score 0-5): .0 | Non-Tobacco Typical Flavor Note: Fruity ([2]; 4 mg, score 0-5): .0 | Non-Tobacco Typical Flavor Note: Honey ([2]; 4 mg, score 0-5): .1 | Non-Tobacco Typical Flavor Note: Licorice ([2]; 4 mg, score 0-5): .0 | Non-Tobacco Typical Flavor Note: Minty ([2]; 4 mg, score 0-5): .9 | Non-Tobacco Typical Flavor Note: Spicy ([2]; 4 mg, score 0-5): .0 | Non-Tobacco Typical Flavor Note: Vanilla ([2]; 4 mg, score 0-5): .1 | Tobacco Typical Flavor Note: Animalic ([2]; 4 mg, score 0-5): 0.0 | Tobacco Typical Flavor Note: Black Tea ([2]; 4 mg, score 0-5): 0.0 | Tobacco Typical Flavor Note: Earthy ([2]; 4 mg, score 0-5): 0.0 | Tobacco Typical Flavor Note: Haylike ([2]; 4 mg, score 0-5): 0.0 | Tobacco Typical Flavor Note: Roasted ([2]; 4 mg, score 0-5): 0.1 | Tobacco Typical Flavor Note: Smoky ([2]; 4 mg, score 0-5): 0.0 | Tobacco Typical Flavor Note: Tobacco ([2]; 4 mg, score 0-5): 0.6 | Tobacco Typical Flavor Note: Woody ([2]; 4 mg, score 0-5): 0.1 | Non-Tobacco Typical Flavor Note: Minty ([2]; 4 mg, score 0-5, listed as menthol): 4.9 | Cooling Sensation ([3]; 1.5 mg menthol (low)): 4.8 | Menthol-Family Flavor Intensity ([3]; 1.5 mg menthol (low)): 4.1 | Tobacco Taste Intensity ([3]; 1.5 mg menthol (low)): 3.1 | Cooling Sensation ([3]; 3.5 mg menthol (medium)): 7.6 | Menthol-Family Flavor Intensity ([3]; 3.5 mg menthol (medium)): 7.0 | Tobacco Taste Intensity ([3]; 3.5 mg menthol (medium)): 2.1 | Cooling Sensation ([3]; 5.0 mg menthol (high)): 8.8 | Menthol-Family Flavor Intensity ([3]; 5.0 mg menthol (high)): 8.0 | Tobacco Taste Intensity ([3]; 5.0 mg menthol (high)): 1.4

CCNC(=O)C1CC(C)CCC1C(C)C (stereo not drawn) [WS-3, N-ethyl-2-(isopropyl)-5-methylcyclohexane carboxamide]
Overall flavor conclusion of smoking and sniffing analysis [4]: provides a cooling sensation without menthol flavor | Solubility in solvents versus humectants ([5]; alcohol or DMSO versus propylene glycol): higher in the solvents than in humectants such as propylene glycol | Solubility ([5]; alcohol, such as ethanol, and DMSO): readily soluble | Stability in the aerosol ([1]; high temperatures in rods of combustible aerosol provision systems): stable molecule and is not transformed and does not react with other chemicals in the aerosol | Migration within the delivery system or packaging during storage [1]: does not migrate | Non-Tobacco Typical Flavor Note: Alcoholic ([2]; 1 mg, score 0-5): .0 | Non-Tobacco Typical Flavor Note: Cacao ([2]; 1 mg, score 0-5): .2 | Non-Tobacco Typical Flavor Note: Caramel ([2]; 1 mg, score 0-5): .1 | Non-Tobacco Typical Flavor Note: Citrus ([2]; 1 mg, score 0-5): .0 | Non-Tobacco Typical Flavor Note: Floral ([2]; 1 mg, score 0-5): .0 | Non-Tobacco Typical Flavor Note: Fruity ([2]; 1 mg, score 0-5): .1 | Non-Tobacco Typical Flavor Note: Honey ([2]; 1 mg, score 0-5): .1 | Non-Tobacco Typical Flavor Note: Licorice ([2]; 1 mg, score 0-5): .0 | Non-Tobacco Typical Flavor Note: Minty ([2]; 1 mg, score 0-5): .0 | Non-Tobacco Typical Flavor Note: Spicy ([2]; 1 mg, score 0-5): .1 | Non-Tobacco Typical Flavor Note: Vanilla ([2]; 1 mg, score 0-5): .3 | Tobacco Typical Flavor Note: Animalic ([2]; 1 mg, score 0-5): 0.1 | Tobacco Typical Flavor Note: Black Tea ([2]; 1 mg, score 0-5): 0.0 | Tobacco Typical Flavor Note: Earthy ([2]; 1 mg, score 0-5): 0.3 | Tobacco Typical Flavor Note: Haylike ([2]; 1 mg, score 0-5): 1.1 | Tobacco Typical Flavor Note: Roasted ([2]; 1 mg, score 0-5): 0.7 | Tobacco Typical Flavor Note: Smoky ([2]; 1 mg, score 0-5): 0.0 | Tobacco Typical Flavor Note: Tobacco ([2]; 1 mg, score 0-5): 3.9 | Tobacco Typical Flavor Note: Woody ([2]; 1 mg, score 0-5): 1.3 | Cooling Sensation ([3]; 1.0 mg cooling agent): significant higher than both control products

CNC(=O)C(C)(C(C)C)C(C)C [WS-23]
Overall flavor conclusion of smoking and sniffing analysis [4]: very low, but detectable minty/menthol flavor | Non-Tobacco Typical Flavor Note: Alcoholic ([2]; 1 mg, score 0-5): .0 | Non-Tobacco Typical Flavor Note: Cacao ([2]; 1 mg, score 0-5): .1 | Non-Tobacco Typical Flavor Note: Caramel ([2]; 1 mg, score 0-5): .1 | Non-Tobacco Typical Flavor Note: Citrus ([2]; 1 mg, score 0-5): .2 | Non-Tobacco Typical Flavor Note: Floral ([2]; 1 mg, score 0-5): .1 | Non-Tobacco Typical Flavor Note: Fruity ([2]; 1 mg, score 0-5): .2 | Non-Tobacco Typical Flavor Note: Honey ([2]; 1 mg, score 0-5): .1 | Non-Tobacco Typical Flavor Note: Licorice ([2]; 1 mg, score 0-5): .0 | Non-Tobacco Typical Flavor Note: Minty ([2]; 1 mg, score 0-5): .7 | Non-Tobacco Typical Flavor Note: Spicy ([2]; 1 mg, score 0-5): .0 | Non-Tobacco Typical Flavor Note: Vanilla ([2]; 1 mg, score 0-5): .3 | Tobacco Typical Flavor Note: Animalic ([2]; 1 mg, score 0-5): 0.1 | Tobacco Typical Flavor Note: Black Tea ([2]; 1 mg, score 0-5): 0.1 | Tobacco Typical Flavor Note: Earthy ([2]; 1 mg, score 0-5): 0.3 | Tobacco Typical Flavor Note: Haylike ([2]; 1 mg, score 0-5): 0.9 | Tobacco Typical Flavor Note: Roasted ([2]; 1 mg, score 0-5): 0.7 | Tobacco Typical Flavor Note: Smoky ([2]; 1 mg, score 0-5): 0.1 | Tobacco Typical Flavor Note: Tobacco ([2]; 1 mg, score 0-5): 3.5 | Tobacco Typical Flavor Note: Woody ([2]; 1 mg, score 0-5): 1.0 | Non-Tobacco Typical Flavor Note: Minty ([2]; 1 mg, score 0-5, listed as WS23): 0.7 | Menthol-Family Flavor Intensity ([3]; 1.0 mg cooling agent): 2.2 | Tobacco Taste Intensity ([3]; 1.0 mg cooling agent): 3.9
